# Measurements published in patent US10550105B2 (Ribon Therapeutics Inc., priority 2018, dated 2020).
# Target: PARP7 (Homo sapiens (Human), UniProt Q7Z3E1)
# Test: Enzymatic assay for inhibition of PARP7: TR-FRET displacement of biotinylated Probe A from the TIPARP active site
# Type: binding
# Settings: Table A-1
# In short: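 Compound dose-response series were incubated with TIPARP and biotinylated Probe A, with a final 30 min step at 25 °C. TR-FRET was read at 320 nm excitation, 615/665 nm emission and 90 μs delay, using the 665/615 ratio to measure complex formation. % inhibition was fitted with a floating or fixed (1) Hill coefficient.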
# PARP7, sequence (Q7Z3E1 whole entry): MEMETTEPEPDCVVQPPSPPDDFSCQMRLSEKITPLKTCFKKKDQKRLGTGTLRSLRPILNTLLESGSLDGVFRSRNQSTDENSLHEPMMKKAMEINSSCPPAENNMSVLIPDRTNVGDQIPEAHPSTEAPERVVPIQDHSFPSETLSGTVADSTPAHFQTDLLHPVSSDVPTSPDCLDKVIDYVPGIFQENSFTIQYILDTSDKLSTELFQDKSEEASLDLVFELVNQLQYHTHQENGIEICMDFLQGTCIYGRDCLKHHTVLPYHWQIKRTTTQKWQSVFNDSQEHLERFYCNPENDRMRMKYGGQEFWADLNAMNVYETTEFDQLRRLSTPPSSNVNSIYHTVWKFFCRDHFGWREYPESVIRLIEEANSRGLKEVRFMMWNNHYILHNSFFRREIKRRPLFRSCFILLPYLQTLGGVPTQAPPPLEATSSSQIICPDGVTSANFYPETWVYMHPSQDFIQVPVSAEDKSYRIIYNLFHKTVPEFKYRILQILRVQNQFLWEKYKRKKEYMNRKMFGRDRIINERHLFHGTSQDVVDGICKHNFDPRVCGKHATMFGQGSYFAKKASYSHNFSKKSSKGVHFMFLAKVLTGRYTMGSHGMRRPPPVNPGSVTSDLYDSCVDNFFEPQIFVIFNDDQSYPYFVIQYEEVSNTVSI
row,SMILES,IC50 [µM]
1,"O=c1[nH]ncc(N2Cc3ccc(OCCN4CCOCC4)nc3C2)c1C(F)(F)F [Example 316, 5-(2-(2-Morpholinoethoxy)-5,7-dihydro-6H-pyrrolo[3,4-b]pyridin-6-yl)-4-(trifluoromethyl)pyridazin-3(2H)-one]",0.1 to 1
2,"COc1ccc2c(c1)C(C)N(c1cn[nH]c(=O)c1C(F)(F)F)C2 (stereo not shown) [Example 332, 5-(6-Methoxy-1-methylisoindolin-2-yl)-4-(trifluoromethyl)pyridazin-3(2H)-one]",0.1 to 1
3,"O=C(CCOC[C@H](Cc1cccnc1)Nc1cn[nH]c(=O)c1C(F)(F)F)N1CCN(c2ncc(C(F)(F)F)cn2)CC1 [Example 637, (S)-5-((1-(3-Oxo-3-(4-(5-(trifluoromethyl)pyrimidin-2-yl)piperazin-1-yl)propoxy)-3-(pyridin-3-yl)propan-2-yl)amino)-4-(trifluoromethyl)pyridazin-3(2H)-one]",< 0.1
4,"O=c1[nH]ncc(N2Cc3ccccc3C2CO)c1Cl (stereo not shown) [Example 191, 4-Chloro-5-(1-(hydroxymethyl)isoindolin-2-yl)pyridazin-3(2H)-one]",≥ 1
5,"C[C@@H](COCCC(=O)N1CCN(c2ccc(C#N)cn2)CC1)Oc1cn[nH]c(=O)c1C(F)(F)F [Example 530A, 6-(4-[3-[(2S)-2-[[6-Oxo-5-(trifluoromethyl)-1,6-dihydropyridazin-4-yl]oxy]propoxy]propanoyl]piperazin-1-yl)pyridine-3-carbonitrile]",< 0.1
6,"C[C@@H](CC(=O)N1CCN(c2ccc(C#N)cn2)CC1)OCCOc1cn[nH]c(=O)c1C(F)(F)F (single isomer, unassigned) [Example 538 Isomer B]",< 0.1
7,"CC1(C)CC(Nc2cccc3c2CN(c2cn[nH]c(=O)c2C(F)(F)F)C3)CC(C)(C)N1 [Example 300, 5-(4-((2,2,6,6-Tetramethylpiperidin-4-yl)amino)isoindolin-2-yl)-4-(trifluoromethyl)pyridazin-3(2H)-one]",0.1 to 1
8,"N#CCc1ccc(N2CCN(C(=O)c3cccc(OC[C@@H]4CCCN4c4cn[nH]c(=O)c4C(F)(F)F)c3)CC2)cc1 [Example 453, (S)-2-(4-(4-(3-((1-(6-Oxo-5-(trifluoromethyl)-1,6-dihydropyridazin-4-yl)pyrrolidin-2-yl)methoxy)benzoyl)piperazin-1-yl)phenyl)acetonitrile]",< 0.1
9,"C[C@@H](COc1cn[nH]c(=O)c1C(F)(F)F)OCCC(=O)N1CCN(c2ncc(Cl)cn2)CC1 (single isomer, unassigned) [Example 543 Isomer B]",< 0.1
10,"CN1CCC(Oc2ccc3c(c2)CN(c2cn[nH]c(=O)c2C(F)(F)F)C3)CC1 [Example 263, 5-(5-((1-Methylpiperidin-4-yl)oxy)isoindolin-2-yl)-4-(trifluoromethyl)pyridazin-3(2H)-one]",< 0.1
11,"C[C@@H](COCCC(=O)N1CCN(c2ncc(C#N)cn2)CC1)Oc1cn[nH]c(=O)c1C(F)(F)F [Example 579, 2-(4-[3-[(2S)-2-[[6-Oxo-5-(trifluoromethyl)-1,6-dihydropyridazin-4-yl]oxy]propoxy]propanoyl]piperazin-1-yl)pyrimidine-5-carbonitrile]",< 0.1
12,"N#Cc1ccc(N2CCN(C(=O)c3cccc(OC[C@H]4CCCN4c4cn[nH]c(=O)c4C(F)(F)F)c3)CC2)nc1 [Example 31, 6-[4-[(3-[[(2R)-1-[6-oxo-5-(trifluoromethyl)-1,6-dihydropyridazin-4-yl]pyrrolidin-2-yl]methoxy]phenyl)carbonyl]piperazin-1-yl]pyridine-3-carbonitrile]",≥ 1
13,"CN(C)C1CCN(c2cccc3c2CN(c2cn[nH]c(=O)c2C(F)(F)F)C3)C1 (stereo not shown) [Example 285, 5-(4-(3-(Dimethylamino)pyrrolidin-1-yl)isoindolin-2-yl)-4-(trifluoromethyl)pyridazin-3(2H)-one]",< 0.1
14,"O=c1[nH]ncc(N2Cc3cccnc3C2)c1Cl [Example 154, 4-Chloro-5-(5,7-dihydro-6H-pyrrolo[3,4-b]pyridin-6-yl)pyridazin-3(2H)-one]",0.1 to 1
15,"N#Cc1cnc(N2CCN(C(=O)c3cc(OC[C@H]4c5ccccc5CN4c4cn[nH]c(=O)c4C(F)(F)F)ccn3)CC2)nc1 (single isomer, unassigned) [Example 64 Isomer A]",≥ 1
16,"COC[C@@H](COCCC(=O)N1CCN(c2ncc(C)cn2)CC1)Nc1cn[nH]c(=O)c1C(F)(F)F [Example 690, (S)-5-((1-Methoxy-3-(3-(4-(5-methylpyrimidin-2-yl)piperazin-1-yl)-3-oxopropoxy)propan-2-yl)amino)-4-(trifluoromethyl)pyridazin-3(2H)-one]",< 0.1
17,"C[C@@H](COCCC(=O)N1CCC(Nc2ncc(C(F)(F)F)cn2)C1)Nc1cn[nH]c(=O)c1C(F)(F)F (stereo partly drawn) [Example 710, 5-(((2S)-1-(3-Oxo-3-(3-((5-(trifluoromethyl)pyrimidin-2-yl)amino)pyrrolidin-1-yl)propoxy)propan-2-yl)amino)-4-(trifluoromethyl)pyridazin-3(2H)-one]",0.1 to 1

# Results, then the compound that gave them:
row,IC50 [µM],SMILES
1,0.1 to 1,"O=c1[nH]ncc(N2Cc3cccc(OCCN4CCCCC4)c3C2)c1C(F)(F)F [Example 213, 5-(4-(2-(Piperidin-1-yl)ethoxy)isoindolin-2-yl)-4-(trifluoromethyl)pyridazin-3(2H)-one]"
2,0.1 to 1,"N#Cc1ccc(N2CCN(C(=O)[C@@H]3CCC[C@H](OC[C@@H]4CCCN4c4cn[nH]c(=O)c4C(F)(F)F)C3)CC2)nc1 (single isomer, unassigned) [Example 57 Isomer D]"
3,< 0.1,"N#Cc1ccc(N2CCN(C(=O)COCCOc3cccc4c3CN(c3cn[nH]c(=O)c3C(F)(F)F)C4)CC2)nc1 [Example 490, 6-(4-(2-(2-((2-(6-Oxo-5-(trifluoromethyl)-1,6-dihydropyridazin-4-yl)isoindolin-4-yl)oxy)ethoxy)acetyl)piperazin-1-yl)nicotinonitrile]"
4,0.1 to 1,"COC[C@H](COCCC(=O)N1CCN(c2ncc(C(F)(F)F)cn2)CC1)Oc1cn[nH]c(=O)c1C(F)(F)F (single isomer, unassigned) [Example 570 Isomer B]"
5,< 0.1,"O=C(CCOCCNc1cn[nH]c(=O)c1Cl)N1CCN(c2ccc(C(F)(F)F)cn2)CC1 [Example 509, 4-Chloro-5-[[2-(3-oxo-3-[4-[5-(trifluoromethyl)pyridin-2-yl]piperazin-1-yl]propoxy)ethyl]amino]-2,3-dihydropyridazin-3-one]"
6,< 0.1,"C[C@@H](CCOCCC(=O)N1CCN(c2ncc(C(F)(F)F)cn2)CC1)Nc1cn[nH]c(=O)c1C(F)(F)F [Example 640, (S)-5-((4-(3-Oxo-3-(4-(5-(trifluoromethyl)pyrimidin-2-yl)piperazin-1-yl)propoxy)butan-2-yl)amino)-4-(trifluoromethyl)pyridazin-3(2H)-one]"
7,0.1 to 1,"NCCOc1cnc2c(c1)CN(c1cn[nH]c(=O)c1C(F)(F)F)C2 [Example 334, 5-(3-(2-Aminoethoxy)-5,7-dihydro-6H-pyrrolo[3,4-b]pyridin-6-yl)-4-(trifluoromethyl)pyridazin-3(2H)-one]"
8,< 0.1,"N#Cc1ccc(N2CCN(C(=O)c3cccc(OCCc4cccc5c4CN(c4cn[nH]c(=O)c4C(F)(F)F)C5)c3)CC2)nc1 [Example 401, 6-(4-(3-(2-(2-(6-Oxo-5-(trifluoromethyl)-1,6-dihydropyridazin-4-yl)isoindolin-4-yl)ethoxy)benzoyl)piperazin-1-yl)nicotinonitrile]"
